The text below walks through data of patent publication US20060127505A1, “Anti-inflammatory formulations” (priority 2002, published 2006).

Each structure is given as a SMILES string.

The test system of experiment [1] is CD3+CD25+ lymphocytes in human PBMC. Briefly: PHA-mediated induction of CD3+CD25+ lymphocytes in human PBMC (Example 8). Type of experiment: cell-based. Particulars: PHA 50 μg/ml, 24 hours. As to the method:
Cells from 3-12 asthma patients were cultured 24 hours with 50 μg/ml PHA. PBMC evaluated by 2-color flow cytometry were gated for CD3+ and analyzed for CD3+CD25+ or CD3+HLA-DR+ as a percentage of the CD3+ population. Results are reported as stimulation indices (SI) calculated as the ratio of % CD3+CD25+ cells or % CD3+HLA-DR+ cells in fully-stimulated cultures to % CD3+CD25+ or % CD3+HLA-DR+ respectively in cells treated with PHA plus ASX, GB, or combinations thereof.

For experiment [2], the system named is cAMP and cGMP concentrations in the lung tissue. The experiment is described as follows: Ovalbumin-induced asthma in guinea pigs: cAMP and cGMP in lung tissue (radioimmunoassay). It is filed as in vivo, guinea pig. The settings on record: lung tissue 24 hours after OV challenge. As to the method: The effect combinations of vitamin C, astaxanthin, and ginkolide on asthma-associated disease parameters ovalbumin(OA)-induced asthma in guinea pigs was evaluated. Twenty-four hours following OA challenge, animals are sacrificed and numbers of inflammatory cells (eosinophils, neutrophils, macrophages) are measured in bronchoalveolar lavage (BAL) fluid; and cAMP and cGMP concentrations in the lung tissue. The experiments were carried out as follows. Male Hartley guinea pigs (250-350 g) were sensitized by intramuscular injections of 0.35 ml of a 5% (W/V) ovalbumin (OA)/saline solution into each thigh on days 1 and 4. Guinea pigs were ready for asthmatic challenge after 25 days of ovalbumin injection. Asthmatic challenge was carried out with ovalbumin aerosol, and bronchoalveolar lavage (BAL) was done 24 hours later. The numbers of eosinophils, neutrophils, and macrophages in the BAL fluid were counted. Biopsies from lung tissues, cAMP and cGMP were measured using commercially available radioimmunoassay kits (Amersham). Immediately after sampling, lung biopsies were frozen by means of a Wollenberger clamp prechilled in liquid nitrogen. Samples were powdered with a pestle and mortar in liquid nitrogen and trichloro acetic acid (TCA) was added to the powdered frozen samples ([…] of tissue). Samples were further homogenized in the frozen TCA in the braying mortar and then centrifuged at 14,000×g for 10 min at 4° C. The supernatants were extracted 6 times in water-saturated diethylether, evaporated and assayed for cGMP by radioimmunoassay using liquid scintillation counter (Packard, Tri-Carb 2100TR). The dose-responsive effect of AX, EGb761, and vitamin C administered independently for suppression of asthma-associated parameters in allergen-induced, asthmatic guinea pigs was determined. Ibuprophen (IB) was used as the positive control. Concentration of inflammatory cells in bronchoalveolar lavage (BAL) fluid and levels of cAMP and cGMP in lung tissue were measured in guinea pigs 24 hours following challenge with OV. […] The dose-responsive effect of AX, EGb761, and vitamin C administered in combination for suppression of asthma-associated parameters in allergen-induced, asthmatic guinea pigs was determined. The combination of these three components was given each day for each guinea pig as a “cocktail”. Concentration of inflammatory cells in bronchoalveolar lavage (BAL) fluid and levels of cAMP and cGMP in lung tissue were measured in guinea pigs 24 hours following challenge with OV.

Turning to `CC1=C(/C=C/C(C)=C/C=C/C(C)=C/C=C/C=C(C)/C=C/C=C(C)/C=C/C2=C(C)C(=O)[C@@H](O)CC2(C)C)C(C)(C)C[C@H](O)C1=O` [astaxanthin, 3,3′-dihydroxy-4,4′-diketo-B-carotene], the “CD3+CD25+ Stimulation Index” value was found to be 0.49 ± 0.09 in experiment [1] (10^−4 M); 0.95 ± 0.06 in experiment [1] (10^−5 M); 0.96 ± 0.10 in experiment [1] (10^−6 M); 0.90 ± 0.05 in experiment [1] (10^−7 M); 0.95 ± 0.05 in experiment [1] (10^−8 M). The cAMP in experiment [2] (5 mg/kg) is 6.9 ± 0.5 pmol (mg protein)^−1; in experiment [2] (10 mg/kg), 8.1 ± 0.8 pmol (mg protein)^−1; in experiment [2] (30 mg/kg), 9.6 ± 0.8 pmol (mg protein)^−1; in experiment [2] (100 mg/kg), 12.6 ± 0.8 pmol (mg protein)^−1; in experiment [2] (200 mg/kg), 12.1 ± 0.5 pmol (mg protein)^−1. The cGMP is listed as 1.2 ± 0.1 pmol (mg protein)^−1 in experiment [2] (5 mg/kg); 1.4 ± 0.1 pmol (mg protein)^−1 in experiment [2] (10 mg/kg); 1.8 ± 0.3 pmol (mg protein)^−1 in experiment [2] (30 mg/kg); 2.8 ± 0.3 pmol (mg protein)^−1 in experiment [2] (100 mg/kg); 2.7 ± 0.2 pmol (mg protein)^−1 in experiment [2] (200 mg/kg).
